Test results as given in patent US4041038A, “1-(3-Phenylpropyl)-4-(beta-alkoxyacryloyl)piperazine derivatives” (Kyorin Pharmaceutical Co., Ltd., priority 1975, dated 1977).

Columns and labels:
[1] = 50% lethal dose in mice (i.v.); details: in vivo, iv, mouse
Description: (§1) The compounds included in this invention are useful as general anesthetics.

[2] = solubility in water; format: physicochemical; details: maleate, nearly physiological pH (pH 6)
[3] = 50% anesthetic dose in rats (i.v.); format: in vivo, rat; details: for selectivity ratio: in vivo, read-out: LD50/AD50; for selectivity ratio / ED50: iv, rat, i.v.; for ED50: read-out: AD50 (50% anesthetic dose)
Description: as §1

[4] = system: extension of hind legs; test: reflex against extension of hind legs / muscular relaxation in rabbits; format: in vivo, rabbit; details: for muscular relaxant activity / muscular rigidity: same doses for KA-100 and thiopental-Na
Description: (§2) Thiopental-Na caused an anesthesia lasted for 13 min. after injection of 20 mg/kg and 30 min. after 30 mg/kg.

[5] = system: withdrawal reflex against nociceptive stimuli; test: withdrawal reflex against nociceptive stimuli (pinching of hind leg toes, small incision of abdomen) in rabbits; format: in vivo, rabbit; details: for anti-nociceptive activity: same doses for KA-100 and thiopental-Na
Description: as §2

[6] = disturbance of blood vessels; details: maleate
[7] = 50% lethal dose in rats (i.v.); details: in vivo, iv, rat
Description: as §1

[8] = anesthesia, sleeping time and post-anesthetic recovery in rabbits (i.v.); format: in vivo, rabbit
Description: In rabbits, KA-100 caused an anesthesia at the doses of more than 10 mg/kg (i.v.), and the sleeping times at 20 and 30 mg/kg were 20 min. and more than 20 min. respectively.
as §2

[9] = 50% anesthetic dose in mice (i.v.); format: in vivo, mouse; details: for selectivity ratio: in vivo, read-out: LD50/AD50; for selectivity ratio / ED50: iv, mouse, i.v.; for ED50: read-out: AD50 (50% anesthetic dose)
Description: as §1

Row | SMILES | LD50 [1] | solubility in water [2] | selectivity ratio [3] | ED50 [3] | anesthetic effect ([3]; rats) | reflex against extension of hind legs ([4]; more than 20 mg/kg) | muscular relaxant activity / muscular rigidity [4] | withdrawal reflex against nociceptive stimuli ([5]; more than 20 mg/kg) | anti-nociceptive activity [5] | disturbance of blood vessels [6] | LD50 [7] | anesthetic effect [8] | sleeping time / duration of anesthesia ([8]; 20 mg/kg) | sleeping time / duration of anesthesia ([8]; 30 mg/kg) | pharmacological potency ([8]; KA-100 and thiopental-Na compared) | minimal effective dose ([8]; Oryctolagus cuniculus, iv, read-out: doses that caused an anesthesia) | recovery from ataxic state in post-anesthetic period ([8]; compared with thiopental-Na) | selectivity ratio [9] | ED50 [9] | anesthetic effect ([9]; mice)
1 | CCOC=CC(=O)N1C[C@H](C)N(CCCc2ccccc2)C[C@H]1C.O=C(O)/C=C\C(=O)O (relative stereo) [KA-100, trans-1-(3-phenylpropyl)-2,5-dimethyl-4-(β-ethoxyacryloyl)piperazine maleate] | 37.3 mg/kg | soluble in water | 12.6 | 4.8 mg/kg | good anesthetic effect | lost the withdrawal reflex against nociceptive stimuli (pinching of hind leg toes by a forceps or small incision of abdomen) and against extension of hind legs | muscular relaxant activity | lost the withdrawal reflex against nociceptive stimuli | anti-nociceptive | does not disturb blood vessels | 60.2 mg/kg | good anesthetic effect | 20 min | more than 20 min. | practically equal | > 10 mg/kg | far more rapid | 4.9 | 7.6 mg/kg | good anesthetic effect
2 | CCCC(C)C1(CC)C(=O)NC(=S)NC1=O (stereo not drawn) [Thiopental-Na, reference compound] | 90.9 mg/kg |  | 7.5 | 10.7 mg/kg |  |  | induced muscular rigidity |  | no anti-nociceptive effect |  | 80.3 mg/kg |  | 13 min | 30 min |  |  |  | 4.3 | 20.9 mg/kg | 
